Measurements as given in US10258687B2, “Development of methods for production of a whole virus vaccine candidate stock and novel adaptive mutations in hepatitis C virus” (Hvidovre Hospital, priority 2014, dated 2019).
Several values for one entry are separate records, joined by “and”; a condition that tells them apart may be missing. Equal entries are not always repeated. Structures can show the parent of a compound that is named as a salt.

Key:
Huh7.5 cells [1] = experiment: Chlorpromazine cytotoxicity (cell viability assay); format: cell-based, Human; conditions: 6 hours treatment
Method: For determination of Huh7.5 cell viability in DMEM+10% FBS versus AEM, we plated 6,000 cells per well of poly-D-lysine coated 96-well plates in DMEM+10% FBS. The following day, medium was removed and cells were incubated in DMEM+10% FBS or AEM for 48 hours. Then, cell viability was determined using the CellTiter 96® AQueous One Solution Cell Proliferation Assay kit (Promega) according to the manufacturer's instructions. The % viability was calculated by relating absorbance at 490 nm determined for 10 AEM cultures to the mean absorbance of 10 replicate DMEM+10% FBS cultures. For determination of chlorpromazine cytotoxicity, chlorpromazine was diluted in DMEM+10% FBS as specified and then added to 6,000 Huh 7.5 cells/well, plated the previous day in poly-D-lysine coated 96-well plates. Cells were incubated for 6 hours before chlorpromazine was removed and DMEM+10% FBS was added. Cell viability was determined 6 and 48 hours post-treatment using the CellTiter 96® AQueous One Solution Cell Proliferation Assay kit. The % viability was calculated by relating absorbance at 490 nm determined for chlorpromazine treated cultures to the mean absorbance of at least three replicate untreated cultures.

[2] = test system: clathrin-mediated endocytosis; experiment: Chlorpromazine inhibition of HCVcc and sf-HCVcc entry; format: cell-based, Human; conditions: genotype 1-6 HCVcc and sf-HCVcc, cells pre-treated, up to 10 μg/mL
Method: FIG. 11: Effect of chlorpromazine treatment on HCVcc and sf-HCVcc entry. (A-G) Chlorpromazine was diluted in DMEM+10% FBS to the concentrations indicated and then added to Huh7.5 cells, plated the previous day onto poly-D-lysine coated 96-well plates, and incubated for 30 minutes. HCVcc (black bars) were diluted in DMEM+10% FBS and sf-HCVcc (grey bars) were diluted in AEM+10% FBS and added to cultures. After 6 hours incubation, chlorpromazine-virus mixes were removed and DMEM+10% FBS was added. Cells were fixed 48 hours post infection and stained, and the number of single HCV NS5A positive cells per well was determined by automated counting as described in Materials and Methods. The HCV Core-E2 sequences of all virus stocks used were determined by direct sequencing. Sequences were identical for HCVcc and sf-HCVcc of the same recombinant. Compared to the plasmid sequence, H77(1a) viruses had acquired amino acid change I348S and J4(1b) had acquired amino acid change V710L, both estimated to be present in the majority of viral genomes. The % blocking was calculated by relating counts of experimental wells to the mean count of six replicate wells with untreated control virus. […] The % viability was calculated by relating absorbance at 490 nm determined for chlorpromazine treated cultures to the mean absorbance of three replicate untreated cultures. […]

Huh7.5 cells [3] = experiment: Infectivity of virus diluted in different media (FIG. 7); format: cell-based, Human; conditions: virus diluted in AEM prior to infection
Method: (A-C) Cells were incubated with virus mixes for 3 hours. After incubation, fresh DMEM+10% FBS was added to all wells. Cells were incubated for 48 hours before they were fixed, stained and the number of single HCV NS5A positive cells per well was determined by automated counting as described in Materials and Methods. Error bars represent SEM of triplicates. For (B), the mean infectivity (HCV NS5A positive cells/well) of triplicate wells of the reference culture (DMEM+10% FBS, black bar) was set to 100%. The number of HCV NS5A positive cells/experimental well was related to this mean to calculate % infectivity relative to the reference culture.

[4] = serial passage by others; cited from earlier work
Huh7.5 cells [5] = experiment: Supernatant infectivity titration (FFU assay) after transfection, infection or serial passage, Example 2; format: cell-based, Human; conditions: both kinetics experiments (MOIs of 0.003 and 0.0003)
Method: For transfection of Huh7.5 cells, 350,000 cells/well were seeded in 6-well plates (Nunc) and incubated for 24 hours. Plasmids (10 μg) were linearized by over-night digestion with XbaI (New England Biolabs). Linearized plasmids were purified using Wizard® SV Gel and PCR Clean-Up System (Promega). In vitro transcription was performed using T7 RNA polymerase (Promega) for 2 hours at 37° C. Transfection was performed by incubating 5 μL lipofectamine 2000 (Invitrogen) and the RNA transcripts in 500 μL serum-free Opti-MEM (Gibco/Invitrogen) for 20 minutes at room temperature. RNA-lipofectamine complexes were added to the pre-plated cells and incubated for 16-24 hours. Transfection efficiencies and culture spread were determined by HCV NS5A immunostaining (see below). […]
For infection of Huh7.5 cells in culture flasks, cells were seeded and incubated for 24 hours. When cells were evaluated to be ˜80% confluent, they were infected at a multiplicity of infection (MOI) of either 0.003 or 0.0003 for 3 hours (see Figure legends for details). […] Infection spread was monitored by HCV NS5A immunostaining (see below). […] For serum-free cultures, cells were infected in complete DMEM as described above and spread was monitored by NS5A immunostaining. […]
Culture supernatant infectivity titers were determined as Focus Forming Units (FFU)/mL. […]

Row | Molecule | highest concentration not resulting in cytotoxic effects (Huh7.5 cells [1]) | blocking rates [2] | infectivity using AEM during the viral infection step (in words) (Huh7.5 cells [3]) | peak infectivity titers of adapted stocks [4] | peak infectivity titers (Huh7.5 cells [5])
1 | CN(C)CCCN1c2ccccc2Sc2ccc(Cl)cc21 [chlorpromazine, chlorpromazine hydrochloride] | 10 µg/mL | up to 93% |  |  | 
2 | J6/JFH1 [J6(2a)] |  |  | infectivity was also reduced | 8 log 10 TCID50/mL and ~6.5 log 10 TCID50/mL | 4.8 log 10 FFU/mL and 4.9 log 10 FFU/mL
